Experiment [1] deals with murine C2C12 myoblasts. Nature of the experiment: Proliferation assay of C2C12 murine myoblasts (methylene blue, absorbance 655 nm). It is filed as cell-based. The procedure:
(§1) Myoblasts were seeded in 96-well tissue culture plates (Nunc, Roskilde, Denmark) at a cell density of 1000 cells per well in 200 μl of Dulbecco's modified Eagle's medium (DMEM, Invitrogen, California) supplemented with foetal bovine serum (FBS, 10% v/v, Invitrogen), penicillin (1×10^5 IU/l, Sigma, St Louis, Mo., USA) and streptomycin (100 mg/l, Sigma) buffered with NaHCO3 containing phenol red (7.22 nmol/l) as a pH indicator, and incubated overnight at 37° C. with 5% CO2. Medium was replaced with DMEM 10% FBS test medium containing 0, 0.001, 0.003, 0.01, 0.03, 0.1, 0.3, 1, 3 or 10 μg/ml oMSV65 in a semi-random arrangement of eight replicates (n=8) for each test medium. Plates were incubated at 37° C. with 5% CO2 for 72 hours, and then the medium was removed. The wells were washed with 200 μl of phosphate buffered saline (PBS, Oxoid, UK) and fixed with 100 μl of 10% formaldehyde, 0.9% NaCl solution for at least one hour. The fixative was then removed and 100 μl of 1% methylene blue stain in 0.01 M borate buffer (pH 8.5) was added to each well and incubated for 30 min at room temperature. Excess stain was removed by four sequential washes in borate buffer. Methylene blue was eluted from the cells by the addition of 100 μl 1:1 (v/v) ethanol/0.1 HCl. The plates were gently shaken and the absorbance was measured at 655 nm using a microplate photometer (FIGS. 3a and 3b).
as §1, with “0,” for “0, 0.001, 0.003,”, “0.01,” for “0.01, 0.03,”, “1” for “0.3, 1, 3”, “oMSV47” for “oMSV65”, “60” for “72”, “(FIG. 9).” for “(FIGS. 3a and 3b).”
Myoblasts were seeded in 96-well tissue culture plates (Nunc, Roskilde, Denmark) at a cell density of 1000 cells per well in […] of Dulbecco's modified Eagle's medium (DMEM, Invitrogen, California) supplemented with foetal bovine serum (FBS, 10% v/v, Invitrogen), penicillin (1×10^5 IU/l, Sigma, St Louis, Mo., USA) and streptomycin (100 mg/l, Sigma) buffered with NaHCO3 containing phenol red (7.22 nmol/l) as a pH indicator, and incubated overnight at 37° C. with 5% CO2. Medium was replaced with DMEM 2.5% FBS test medium containing 0, 0.01, 0.1, 1, 5 or 10 μg/ml of the respective peptides in a semi-random arrangement of eight replicates (n=8) for each test medium. Plates were incubated at 37° C. with 5% CO2 for 80 hours, and then the medium was removed. The wells were washed with 200 μl of phosphate buffered saline (PBS, Oxoid, UK) and fixed with 100 μl of 10% formaldehyde, 0.9% NaCl solution for at least one hour. The fixative was then removed and 100 μl of 1% methylene blue stain in 0.01 M borate buffer (pH 8.5) was added to each well and incubated for 30 min at room temperature. Excess stain was removed by four sequential washes in borate buffer. Methylene blue was eluted from the cells by the addition of 100 μl 1:1 (v/v) ethanol/0.1 HCl. […]

Experiment [2] has as its system human skeletal muscle myoblasts. Nature of the experiment: Proliferation assay of human primary myoblasts (methylene blue). It is filed as cell-based. The procedure: (§2) Human skeletal muscle myoblasts (Cambrex, Australia) were seeded in 96-well tissue culture plates (Nunc, Roskilde, Denmark) at a cell density of 2000 cells per well in 200 μl of Skeletal Muscle Basal Medium (Cambrex, Australia) supplemented with foetal bovine serum (FBS, 10% v/v, Cambrex, Australia), and incubated overnight at 37° C. with 5% CO2. The medium was replaced with Dulbecco's modified Eagle's medium (DMEM, Invitrogen, California) supplemented with 5% foetal bovine serum (FBS, Invitrogen, California), penicillin (1×10^5 IU/l, Sigma, St Louis, Mo., USA) and streptomycin (100 mg/l, Sigma) buffered with NaHCO3 containing phenol red (7.22 nmol/l) as a pH indicator with 0, 0.1, 1, 5 and 10 μg/ml rhMSV38 or roMSV47 protein in a semi-random arrangement of eight replicates (n=8) for each test medium. Plates were incubated at 37° C. with 5% CO2 for 96 hours, and then the medium was removed. The wells were washed with 200 μl of phosphate buffered saline (PBS, Oxoid, UK) buffer and fixed with 100 μl of 10% formaldehyde, 0.9% NaCl solution for at least one hour. The fixative was then removed and 100 μl of 1% methylene blue stain in 0.01 M borate buffer (pH 8.5) was added to each well and incubated for 30 min at room temperature. Excess stain was removed by four sequential washes in borate buffer. Methylene blue was eluted from the cells by the addition of 100 μl 1:1 (v/v) ethanol/0.1 HCl. The plates were gently shaken and the absorbance was measured at 655 nm using a microplate photometer (VersaMax, Molecular Devices, CA).
Human skeletal muscle myoblasts (Cambrex, Australia) were seeded in 96-well tissue culture plates (Nunc, Roskilde, Denmark) at a cell density of 2000 cells per well in 200 μl of Skeletal Muscle Basal Medium (Cambrex, Australia) supplemented with foetal bovine serum (FBS, 10% v/v, Cambrex, Australia), and incubated overnight at 37° C. with 5% CO2. The medium was replaced with Dulbecco's modified Eagle's medium (DMEM, Invitrogen, California) supplemented with 5% foetal bovine serum (FBS, Invitrogen, California), penicillin (1×10^5 IU/l, Sigma, St Louis, Mo., USA) and streptomycin (100 mg/l, Sigma) buffered with NaHCO3 containing phenol red (7.22 nmol/l) as a pH indicator with no added protein, 1.5 or 3.0 μg/ml recombinant bovine mature myostatin alone and with combination of 0.3, 1, 3, 10 molar ratio of rhMSV38 to myostatin, and the same amounts of rhMSV38 without myostatin in a semi-random arrangement of eight replicates (n=8) for each test medium. Plates were incubated at 37° C. with 5% CO2 for 48 hours, and then the medium was removed. […] The plates were gently shaken and the absorbance was measured at 655 nm using a microplate photometer (VersaMax, Molecular Devices, CA).

For experiment [3], the target named is T1, myostatin (Bos taurus, UniProt O18836).
T1 sequence (O18836 267-375): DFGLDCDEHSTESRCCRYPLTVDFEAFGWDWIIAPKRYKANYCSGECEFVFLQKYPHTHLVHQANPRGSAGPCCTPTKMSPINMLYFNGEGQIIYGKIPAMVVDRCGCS
Nature of the experiment: rhMSV38/mature myostatin competition in human primary myoblast proliferation assay. It is filed as cell-based, bovine. The note with it: FIG. 13. As for the experimental part:
as §2, with “with no added protein, 1.5 or 3.0 μg/ml recombinant bovine mature myostatin alone and with combination of 0.3,” for “with 0, 0.1,”, “1, 3, 10 molar ratio of rhMSV38 to myostatin,” for “1, 5”, “and the same amounts of” for “and 10 μg/ml”, “rhMSV38 without myostatin” for “rhMSV38 or roMSV47 protein”, “for 48” for “for 96”

Where no end group is shown, it is not given here.

With “myostatin: recombinant bovine mature myostatin, negative regulator of muscle growth [reference compound]”, the “myoblast proliferation under myostatin” value in experiment [1] (1.5 μg/ml myostatin, C2C12, FIG. 9) is recorded as “inhibited myoblast proliferation”. Further, the “proliferation of human myoblasts under myostatin” value in experiment [2] (1.5 or 3 μg/ml Mstn, 48 h, FIG. 13) is “inhibitory effect”.

Take “rhMSV38: recombinant human MSV38 expressed in E. coli (VHFPTPPNEEWIFFNVRRIIFLEVGFQFCSILGETALS; not fully specified)”: the “overcoming the inhibitory effect of myostatin on proliferation of human myoblasts” value in experiment [3] (1.5 μg/ml Mstn, 48 h) is on record as “able to overcome the inhibitory effect of myostatin”. Also, the “antagonism of myostatin, proliferation relative to controls” value in experiment [3] (1:10 molar ratio of myostatin to rhMSV38, 48 h) is reported as “increases proliferation beyond that of controls”. Also, in experiment [3] (double the concentration of myostatin (3 μg/ml Mstn), 48 h), the “molar ratio rhMSV38:myostatin at which restoration was achieved” value is reported as 1 × molar ratio. Besides, the “proliferation of murine C2C12 myoblasts” value in experiment [1] (0-10 μg/ml, DMEM 2.5% FBS, 80 h, FIG. 12A and FIG. 17) is listed as “stimulate myoblast proliferation”. In experiment [2] (0-10 μg/ml, 96 h, FIG. 12B), the “proliferation of human myoblasts” value was “stimulate myoblast proliferation”. The “proliferation of human primary myoblasts” value in experiment [2] (rhMSV38 without myostatin, 48 h, FIG. 13) is reported as “stimulate proliferation of human primary myoblasts in a dose dependent manner”.

(Values after US8455448B2, “Myostatin isoform” (Myostin Therapeutics Pty Ltd, priority 2004, dated 2013).)
